Experimental data: patent US20250326748A1, “COMPOUNDS AND METHODS FOR MODULATING SPLICING” (REMIX THERAPEUTICS INC., priority 2022, published 2025)
Counter-ions that a name gives are not always drawn. Like-named read-outs stand apart in the source and are kept apart here.

Columns and labels:
Assay type in all cases: cell-based, human
HTT mRNA = test: Splicing RT-qPCR assay, HTT canonical (CJ) and alternative (AJ) junction mRNA; settings: Homo sapiens; for IC50: canonical junction mRNA; for AC50: alternative junction mRNA, read-out: HTT AJ (AC50, increase in AJ mRNA)
Procedure, shortened: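 Read-out: one-step RT-qPCR on crude lysates measuring exon-exon junction isoforms, CJ for the canonical transcript and AJ for compound-induced exon inclusion. Normalization used PPIA for adherent A673 and GAPDH or GUSB for K562. Cells received 11 doses, 3-fold apart, top 10 uM, for 24 h.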

SMN2 mRNA = test: Splicing RT-qPCR panel, SMN2 canonical junction (CJ) mRNA; settings: Homo sapiens, read-out: SMN2 CJ (decrease in CJ mRNA levels, IC50)
Procedure, shortened: (§1)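 A673 cells (DMEM, 10% FBS) or K562 cells (IMDM, 10% FBS) treated 24 h at 37 °C with an 11-point 3-fold dilution, top 10 uM, DMSO ≤0.25%. Canonical-junction mRNA quantified in lysates by RT-qPCR, normalised to GAPDH, GUSB or PPIA and to DMSO (2^−ΔΔCt), then converted to % response.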

Target C mRNA = test: Splicing RT-qPCR panel, Target C canonical junction (CJ) mRNA; settings: Homo sapiens, read-out: Target C CJ (decrease in CJ mRNA levels, IC50)
Procedure, shortened: as §1

[1] = 24 h, RT-qPCR, A673 or K562 cells, 24 hours treatment, read-out: HTT CJ (IC50, decrease in CJ mRNA)
[2] = qPCR panel, read-out: HTT CJ (decrease in CJ mRNA levels, IC50)
[3] = RT-qPCR, A673 or K562 cells, 24 hours treatment

Row | SMILES | IC50 (HTT mRNA; [1]) [nM] | IC50 (HTT mRNA; [2]) [nM] | AC50 (HTT mRNA; [3]) [nM] | IC50 (SMN2 mRNA) [nM] | IC50 (Target C mRNA) [nM]
1 | CN[C@@H]1CN(c2cnc3nc(-c4cc5cn(C)nc5c(C)c4O)ccc3c2)C[C@H]1F (single isomer, unassigned) [Compound 130] | 100 to 1000 | 100 to 1000 | 100 to 1000 | < 100 | 100 to 1000
2 | CN[C@H]1CN(c2cnc3nc(-c4cc5cn(C)nc5c(C)c4O)ccc3c2)C[C@@H]1F (single isomer, unassigned) [Compound 131] | 1000 to 10000 | 1000 to 10000 | 1000 to 10000 | < 100 | 1000 to 10000
3 | Cc1c(O)c(-c2ccc3cc(N4CCC(NCC5CC5)C4)cnc3n2)cc2cn(C)nc12 (stereo in doubt) [Compound 119, 5-{6-[(3R)-3-[(cyclopropylmethyl)amino]pyrrolidin-1-yl]-1,8-naphthyridin-2-yl}-2,7-dimethylindazol-6-ol] | < 100 | < 100 | 100 to 1000 | < 100 | 100 to 1000
4 | CNC1CCN(c2cnc3nc(-c4cc5cn(C)nc5c(C)c4O)ncc3c2)C1 (centres unmarked) [Compound 104, 2,7-dimethyl-5-{6-[3-(methylamino)pyrrolidin-1-yl]pyrido[2,3-d]pyrimidin-2-yl}indazol-6-ol] | 100 to 1000 | 100 to 1000 | 100 to 1000 | < 100 | 
5 | Cc1c(O)c(-c2ccc3cc(N4CCC(NCC5CC5)C4)cnc3n2)cc2cn(C)nc12 (centres unmarked) [Compound 105, 5-(6-{3-[(cyclopropylmethyl)amino]pyrrolidin-1-yl}-1,8-naphthyridin-2-yl)-2,7-dimethylindazol-6-ol] | 100 to 1000 | 100 to 1000 | 100 to 1000 | < 100 | 1000 to 10000
6 | CCNC1CCN(c2cnc3nc(-c4cc5cn(C)nc5c(F)c4O)ccc3c2)C1 (centres unmarked) [Compound 106, 5-{6-[3-(ethylamino)pyrrolidin-1-yl]-1,8-naphthyridin-2-yl}-7-fluoro-2-methylindazol-6-ol] | 100 to 1000 | 100 to 1000 | 100 to 1000 | < 100 | 100 to 1000
7 | CN[C@@H]1CCN(c2cnc3nc(-c4cc5cn(C)nc5c(C)c4O)ncc3c2)C1 [Compound 107, 2,7-dimethyl-5-{6-[(3R)-3-(methylamino)pyrrolidin-1-yl]pyrido[2,3-d]pyrimidin-2-yl}indazol-6-ol hydrochloride] | < 100 | < 100 | < 100 | < 100 | 100 to 1000
8 | CN[C@@H]1CCN(c2cnc3nc(-c4cc5cn(C)nc5c(C)c4O)ccc3c2)C1 [Compound 112] | < 100 | < 100 | < 100 | < 100 | < 100
9 | Cc1cn2nc(-c3cnc4nc(C5CCNCC5)ccc4c3)cc(C)c2n1 [Compound 115, 6-(2,8-dimethylimidazo[1,2-b]pyridazin-6-yl)-2-(piperidin-4-yl)-1,8-naphthyridine] | 1000 to 10000 | 1000 to 10000 | > 10000 | 100 to 1000 | > 10000
10 | CN[C@H]1CCN(c2cnc3nc(-c4cc(C)c5nc(C)cn5n4)ccc3c2)C1 [Compound 116] | < 100 | < 100 | < 100 | < 100 | 100 to 1000
11 | CN[C@@H]1CCN(c2cnc3nc(-c4cc(C)c5nc(C)cn5n4)ccc3c2)C1 [Compound 117] | 1000 to 10000 | 1000 to 10000 | 100 to 1000 | < 100 | 1000 to 10000
12 | Cc1c(O)c(-c2ccc3cc(N4CC[C@@H](NCC5CC5)C4)cnc3n2)cc2cn(C)nc12 [Compound 118] | < 100 | < 100 | < 100 | < 100 | 100 to 1000
13 | CN[C@H]1CCN(c2cnc3nc(-c4cc5cn(C)nc5c(C)c4O)ncc3c2)C1 [Compound 120] | 100 to 1000 | 100 to 1000 | 100 to 1000 | < 100 | > 10000
14 | CCNC1CCN(c2cnc3nc(-c4cc5cn(C)nc5c(C)c4O)ccc3c2)C1 (centres unmarked) [Compound 122, 5-{6-[3-(ethylamino)pyrrolidin-1-yl]-1,8-naphthyridin-2-yl}-2,7-dimethylindazol-6-ol] | < 100 | < 100 | < 100 | < 100 | 100 to 1000
15 | CCN[C@H]1CCN(c2cnc3nc(-c4cc5cn(C)nc5c(C)c4O)ccc3c2)C1 [Compound 123] | 100 to 1000 | 100 to 1000 | 100 to 1000 | < 100 | 100 to 1000
16 | CCN[C@@H]1CCN(c2cnc3nc(-c4cc5cn(C)nc5c(C)c4O)ccc3c2)C1 [Compound 124] | < 100 | < 100 | < 100 | < 100 | 100 to 1000
17 | CN[C@H]1CN(c2cnc3nc(-c4cc5cn(C)nc5c(C)c4O)ccc3c2)C[C@H]1C [Compound 125, 2,7-dimethyl-5-{6-[(3R,4R)-3-methyl-4-(methylamino)379pyrrolidine-1-yl]-1,8-naphthyridin-2-yl}indazol-6-ol] | 100 to 1000 | 100 to 1000 | 100 to 1000 | < 100 | 100 to 1000
18 | CN[C@@H]1CN(c2cnc3nc(-c4cc5cn(C)nc5c(C)c4O)ccc3c2)C[C@H]1C [Compound 126, 2,7-dimethyl-5-{6-[(3R,4S)-3-methyl-4-(methylamino)382pyrrolidine-1-yl]-1,8-naphthyridin-2-yl}indazol-6-ol] | 100 to 1000 | 100 to 1000 | 1000 to 10000 | < 100 | 1000 to 10000
19 | CN[C@H]1CN(c2cnc3nc(-c4cc5cn(C)nc5c(C)c4O)ccc3c2)C[C@@H]1C [Compound 127, 2,7-dimethyl-5-{6-[(3S,4R)-3-methyl-4-(methylamino)384pyrrolidine-1-yl]-1,8-naphthyridin-2-yl}indazol-6-ol] | 100 to 1000 | 100 to 1000 | 100 to 1000 | < 100 | 100 to 1000
20 | CN[C@@H]1CN(c2cnc3nc(-c4cc5cn(C)nc5c(C)c4O)ccc3c2)C[C@@H]1C [Compound 128] | 100 to 1000 | 100 to 1000 | 100 to 1000 | < 100 | 100 to 1000
21 | CN[C@H]1CN(c2cnc3nc(-c4cc5cn(C)nc5c(C)c4O)ccc3c2)C[C@H]1F [Compound 129, 5-{6-[(3R,4S)-3-fluoro-4-(methylamino)pyrrolidin-1-yl]-1,8-naphthyridin-2-yl}-2,7-dimethylindazol-6-ol] | 100 to 1000 | 100 to 1000 | 100 to 1000 | < 100 | 100 to 1000
22 | CN[C@@H]1CN(c2cnc3nc(-c4cc5cn(C)nc5c(C)c4O)ccc3c2)C[C@@H]1F [Compound 132, 5-{6-[(3S,4R)-3-fluoro-4-(methylamino)pyrrolidin-1-yl]-1,8-naphthyridin-2-yl}-2,7-dimethylindazol-6-ol] | 100 to 1000 | 100 to 1000 | 100 to 1000 | < 100 | 100 to 1000
23 | Cn1cc2cc(-c3cnc4nc(N5CCC(NC(C)(C)C)C5)ccc4c3)c(O)cc2n1 (centres unmarked) [Compound 133, 5-{7-[3-(tert-butylamino)pyrrolidin-1-yl]-1,8-naphthyridin-3-yl}-2-methylindazol-6-ol] | 1000 to 10000 | 1000 to 10000 | > 10000 | > 10000 | > 10000
24 | Cn1cc2cc(-c3ccc4cc(N5CCC(NC(C)(C)C)C5)cnc4n3)c(O)cc2n1 (centres unmarked) [Compound 134, 5-{6-[3-(tert-butylamino)pyrrolidin-1-yl]-1,8-naphthyridin-2-yl}-2-methylindazol-6-ol hydrochloride] | 100 to 1000 | 100 to 1000 | 100 to 1000 | < 100 | 100 to 1000
25 | Cn1cc2cc(-c3ccc4cc(N5CC[C@@H](NCC6CC6)C5)cnc4n3)c(O)c(F)c2n1 [Compound 135, 5-{6-[(3R)-3-[(cyclopropylmethyl)amino]330pyrrolidine-1-yl]-1,8-naphthyridin-2-yl}-7-fluoro-2-methylindazol-6-ol] | < 100 | < 100 | < 100 | < 100 | 100 to 1000
26 | Cc1cn2cc(-c3cc(Cl)c4cc(N5C[C@H](C)N[C@@H](C)C5)cnc4n3)cc(F)c2n1 [Compound 298] | 100 to 1000 | 100 to 1000 | 100 to 1000 |  | 1000 to 10000
27 | Cc1cn2nc(-c3cc(Cl)c4cc(N5C[C@H](C)N[C@@H](C)C5)cnc4n3)cc(C)c2n1 [Compound 336] | 100 to 1000 | 100 to 1000 | 100 to 1000 |  | 1000 to 10000
28 | Cc1c(O)c(-c2cc(Cl)c3cc(N4CCNC5(CC5)C4)cnc3n2)cc2cn(C)nc12 [Compound 381] | 100 to 1000 | 100 to 1000 | 100 to 1000 |  | 1000 to 10000
29 | Cc1cn2nc(-c3ccc4c(Cl)c(N5C[C@H](C)N[C@@H](C)C5)cnc4n3)cc(C)c2n1 [Compound 393, 5-chloro-2-{2,8-dimethylimidazo[1,2-b]pyridazin-6-yl}-6-[(3S,5S)-3,5-dimethylpiperazin-1-yl]-1,8-naphthyridine] | 100 to 1000 | 100 to 1000 | 100 to 1000 |  | 1000 to 10000
